Reference: patent publication US20250223628A1, “METHODS OF IMPROVING SURVIVAL AND ELIMINATING TREATMENT-LIMITING TOXICITIES OF DICHLOROACETATE IN PATIENTS WITH PYRUVATE DEHYDROGENASE COMPLEX DEFICIENCY” (SAOL INTERNATIONAL DEVELOPMENT LTD., priority 2024, published 2025)
Where two headings read alike, the source gives them in different places.

How the values were obtained:
[1] = system: patients with PDCD; assay: Survival analysis of DCA treatment cohort versus DeBrosse natural history cohort; assay type: in vivo, human; details: for Adjusted Odds Ratio (95% CI): DCA vs natural history
Protocol: As a result, an analysis procedure was identified that used the data available in the DeBrosse natural history study to assess whether or not DCA extended life. The analysis was conducted to answer the following questions: • a. Did the year of birth have any effect on survival? For example, has standard of care improved. • b. Is the primary driver of survival differences from natural history driven by the ketogenic diet, the current standard of care, although empirical approach to managing PDCD patients? • c. Once the population is controlled for an index age, gender and age of disease onset, does DCA provide a survival benefit? • d. Once the population is controlled for an index age and age of disease onset, does DCA provide a survival benefit? • e. Once the population has the maximum duration of follow-up, including with patients that discontinued treatment, does DCA provide a survival benefit?
After accounting for two patients with multiple exclusion criteria, 34 patients (14 males and 20 females) from the DeBrosse study remain for potential matching for the current analyses.
Baseline characteristics related to drug and non-drug treatment, age at the earliest recorded of first related symptom, initiation of the ketogenic diet or diagnosis and other baseline demographics were compared for each analysis. It was notable that the Phase III cohort had more females. This was controlled by conducting a 1:1 matched cohort in the primary analysis that requires gender matching.
A summary of all analyses conducted with both Kaplan-Meier log-rank statistics and hazard/odds ratio reductions are provided below: […]

[2] = system: patients with PDCD; assay: Prospective, randomized, double-blind, placebo-controlled crossover study with GSTZ1 haplotype-based DCA dosing and open-label extension; assay type: in vivo, human
Protocol: A prospective, randomized, double-blind, placebo-controlled crossover study was conducted in patients with PDCD. This study was the first study to prospectively use GSTZ1 haplotype testing to identify a dose that may help to mitigate the risk of peripheral neuropathy from chronic administration of DCA. These patients were treated with either DCA or placebo for 4 months, provided placebo for a 1-month washout period and then were placed on the placebo or DCA, whichever they had not taken prior. Patients then had the option to continue on open-label DCA until the ultimate completion of the study or regulatory approval. 34 PDCD patients were recruited into the study. 7 (21%) of these patients were prospectively identified as “slow metabolizers”. Rather than having a dose of 25 mg/kg/day, these patients were provided DCA doses at 12.5 mg/kg/day. Both dosing groups took DCA in two equal, weight-based doses. This was the first prospective study completed using the haplotype testing and conducted solely in the PDCD patient population.
The study had anticipated a 20% dropout rate due to death or peripheral neuropathy.

[3] = system: patients with congenital lactic acidosis (CLA); details: 25 mg/kg broken into two daily doses, cited from earlier work
[4] = cited from earlier work
[5] = Abdelmak 2013, Congenital Lactic Acidosis, 8 total patients
[6] = Dunbar 2014, Recurrent Malignant Brain Tumor, 8 total patients
[7] = Kaufmann 2006, MELAS, 15 total patients
[8] = Michelakis 2017, Pulmonary Arterial Hypertension, 20 total patients
[9] = Stacpoole 2008, Congenital Lactic Acidosis, 36 total patients

With O=C(O)C(Cl)Cl [DCA, Dichloroacetate] the “Adjusted Odds Ratio (95% CI)” value ([1]; Full Cohort Comparison, multivariate P 0.0065) was 0.014, the “Adjusted Odds Ratio (95% CI)” value ([1]; Matched on Age and Sex, Excluding 1980s Patients with Extended Follow-Up, multivariate P 0.0055) was 0.023 and the “Adjusted Odds Ratio (95% CI)” value ([1]; Matched on Age and Sex, Excluding 1980s Patients, multivariate P 0.0033) was 0.0072. For the same compound, the “Adjusted Odds Ratio (95% CI)” value ([1]; Matched on Age, multivariate P 0.0012) was 0.0071, the “Adjusted Odds Ratio (95% CI)” value ([1]; Matched on Sex and Follow-Up Duration, multivariate P 0.024) was 0.026 and the “Adjusted Odds Ratio (95% CI)” value ([1]; Primary Analysis with Extended Follow-Up, multivariate P 0.0029) was 0.013. The “Adjusted Odds Ratio (95% CI)” value ([1]; Primary Analysis: Matched on Age and Sex, multivariate P 0.0061) was 0.011, the “DCA Treatment Cohort Mortality Rate (95% CI)” value ([1]; Full Cohort Comparison, N 33, log rank P 0.003) was 0.00 and the “DCA Treatment Cohort Mortality Rate (95% CI)” value ([1]; Matched on Age and Sex with Replacement with Extended Follow-Up, N 31, log rank P 0.0443) was 1.38. For the same compound, the “DCA Treatment Cohort Mortality Rate (95% CI)” value ([1]; Matched on Age and Sex with Replacement, N 31, log rank P 0.0295) was 0.00, the “DCA Treatment Cohort Mortality Rate (95% CI)” value ([1]; Matched on Age and Sex with Unknown Onset Imputed at 0, N 28, log rank P 0.0273) was 0.00 and the “DCA Treatment Cohort Mortality Rate (95% CI)” value ([1]; Matched on Age and Sex with Unknown Onset Imputed at 0 with Extended Follow-Up, N 28, log rank P 0.0357) was 1.55. The “DCA Treatment Cohort Mortality Rate (95% CI)” value ([1]; Matched on Age and Sex, Excluding 1980s Patients with Extended Follow-Up, N 25, log rank P 0.0899) was 1.74, the “DCA Treatment Cohort Mortality Rate (95% CI)” value ([1]; Matched on Age and Sex, Excluding 1980s Patients, N 25, log rank P 0.0255) was 0.00 and the “DCA Treatment Cohort Mortality Rate (95% CI)” value ([1]; Matched on Age, N 32, log rank P 0.0019) was 0.00. For the same compound, the “DCA Treatment Cohort Mortality Rate (95% CI)” value ([1]; Matched on Sex and Follow-Up Duration, N 28, log rank P 0.0211) was 0.00, the “DCA Treatment Cohort Mortality Rate (95% CI)” value ([1]; Primary Analysis with Extended Follow-Up, N 28, log rank P 0.0357) was 1.55 and the “DCA Treatment Cohort Mortality Rate (95% CI)” value ([1]; Primary Analysis: Matched on Age and Sex, N 28, log rank P 0.0273) was 0. The “Completion of the double-blind portion” value ([2]; 34 PDCD patients, 25 or 12.5 mg/kg/day by haplotype) was “all of the patients completed”, the “Dropouts for other reasons” value ([2]; double-blind portion) was “zero” and the “Events of peripheral neuropathy” value ([2]; double-blind study) was “zero”. For the same compound, the “Events of neuropathy possibly related to therapy” value ([2]; open-label phase, occurred after 18 months of exposure) was “one”, the “Patients who experienced peripheral neuropathy” value ([3]; double blind portion) was 36% and the “Patients who experienced peripheral neuropathy” value ([3]; long-term extension arm) was 38%. For the same compound, the “Peripheral Neuropathy Adverse Event Rate” value [4, 5] was 38%, the “Peripheral Neuropathy Adverse Events” value [4, 5] was 3 and the “Peripheral Neuropathy Adverse Event Rate” value [4, 6] was 25%. For the same compound, the “Peripheral Neuropathy Adverse Events” value [4, 6] was 2, the “Peripheral Neuropathy Adverse Event Rate” value [4, 7] was 100% and the “Peripheral Neuropathy Adverse Events” value [4, 7] was 15. The “Peripheral Neuropathy Adverse Event Rate” value [4, 8] was 25%, the “Peripheral Neuropathy Adverse Events” value [4, 8] was 5 and the “Peripheral Neuropathy Adverse Event Rate” value [4, 9] was 36%. The “Peripheral Neuropathy Adverse Events” value [4, 9] was 13, the “Peripheral Neuropathy Adverse Events” value ([4]; Total of five studies, 87 total patients) was 38 and the “Peripheral Neuropathy Adverse Event Rate” value ([4]; Total of several studies across multiple disease states, 87 total patients) was 44%. For the same compound, the “Dose required for a similar pharmacokinetic exposure” value ([4]; slow metabolizer group of GSTZ1 haplotypes, fraction of the dose) was “roughly ½” and the “Recovery from peripheral neuropathy exhibited during DCA administration” value ([4]; time to recovery) was at most 9 months.
